Assay [1] relates to Podosphaera fuliginea. The assay can be described thus: Antifungal activity against Podosphaera fuliginea isolate K-7 in cucumber plants by leaf disc method. The class given is functional, organism-based.
Assay [2] relates to Podosphaera fuliginea. The assay can be described thus: Antifungal activity against Podosphaera fuliginea isolate N-1 in cucumber plants by leaf disc method. Type of assay: functional, organism-based.
For assay [3], the system named is Podosphaera fuliginea. The assay can be described thus: Resistant ratio, ratio of EC50 for Podosphaera fuliginea isolate N-2 to EC50 for Podosphaera fuliginea isolate K-7. The class given is functional.
Assay [4] has as its system Podosphaera fuliginea. The assay can be described thus: Antifungal activity against Podosphaera fuliginea isolate N-2 in cucumber plants by leaf disc method. Type of assay: functional, organism-based.
Assay [5] deals with Podosphaera fuliginea. As to the kind of experiment: Antifungal activity against Podosphaera fuliginea isolate K-7 in cucumber plants assessed as percentage of infected leaf area at 125 ppm treated 3 times at 7-day interval by foliar spray test. The class given is functional.
Assay [6] relates to Podosphaera fuliginea. As to the kind of experiment: Resistant ratio, ratio of EC50 for Podosphaera fuliginea isolate S-2 to EC50 for Podosphaera fuliginea isolate K-7. The class given is functional.
Assay [7] has as its system Podosphaera fuliginea. The assay can be described thus: Antifungal activity against Podosphaera fuliginea isolate S-2 in cucumber plants assessed as percentage of infected leaf area at 125 ppm treated 3 times at 7-day interval by foliar spray test. The class given is functional.
Assay [8] relates to Podosphaera fuliginea. As to the kind of experiment: Antifungal activity against Podosphaera fuliginea isolate N-2 in cucumber plants assessed as percentage of infected leaf area at 125 ppm treated 3 times at 7-day interval by foliar spray test. The class given is functional.
Assay [9] relates to Podosphaera fuliginea. As to the kind of experiment: Resistant ratio, ratio of EC50 for Podosphaera fuliginea isolate N-1 to EC50 for Podosphaera fuliginea isolate K-7. Type of assay: functional.
Assay [10] has as its system Podosphaera fuliginea. The assay can be described thus: Antifungal activity against Podosphaera fuliginea isolate S-2 in cucumber plants by leaf disc method. Type of assay: functional, organism-based.
The test system of assay [11] is Podosphaera fuliginea. The assay can be described thus: Antifungal activity against Podosphaera fuliginea isolate N-1 in cucumber plants assessed as percentage of infected leaf area at 125 ppm treated 3 times at 7-day interval by foliar spray test. Type of assay: functional.
The subject of assay [12] is Podosphaera fuliginea. The assay can be described thus: Antifungal activity against Podosphaera fuliginea isolate N-1 in cucumber plants assessed as percentage of infected leaf area at 62.5 ppm treated 3 times at 7-day interval by foliar spray test. The class given is functional.
Assay [13] relates to Podosphaera fuliginea. The assay can be described thus: Antifungal activity against Podosphaera fuliginea isolate S-2 in cucumber plants assessed as percentage of infected leaf area at 62.5 ppm treated 3 times at 7-day interval by foliar spray test. Type of assay: functional.
For assay [14], the system named is Podosphaera fuliginea. As to the kind of experiment: Antifungal activity against Podosphaera fuliginea isolate K-7 in cucumber plants assessed as percentage of infected leaf area at 62.5 ppm treated 3 times at 7-day interval by foliar spray test. The class given is functional.
In assay [15] the test system is Podosphaera fuliginea. As to the kind of experiment: Antifungal activity against Podosphaera fuliginea isolate N-2 in cucumber plants assessed as percentage of infected leaf area at 62.5 ppm treated 3 times at 7-day interval by foliar spray test. Type of assay: functional.
Assay [16] has as its system Podosphaera fuliginea. The assay can be described thus: Antifungal activity against Podosphaera fuliginea isolate N-1 in cucumber plants assessed as percentage of infected leaf area at 466.7 ppm treated 3 times at 7-day interval by foliar spray test. Type of assay: functional.
Assay [17] relates to Podosphaera fuliginea. As to the kind of experiment: Antifungal activity against Podosphaera fuliginea isolate N-2 in cucumber plants assessed as percentage of infected leaf area at 466.7 ppm treated 3 times at 7-day interval by foliar spray test. Type of assay: functional.
Assay [18] has as its system Podosphaera fuliginea. As to the kind of experiment: Antifungal activity against Podosphaera fuliginea isolate S-2 in cucumber plants assessed as percentage of infected leaf area at 466.7 ppm treated 3 times at 7-day interval by foliar spray test. The class given is functional.
Assay [19] deals with Podosphaera fuliginea. The assay can be described thus: Antifungal activity against Podosphaera fuliginea isolate K-7 in cucumber plants assessed as percentage of infected leaf area at 466.7 ppm treated 3 times at 7-day interval by foliar spray test. The class given is functional.
Assay [20] deals with Podosphaera fuliginea. As to the kind of experiment: Antifungal activity against Podosphaera fuliginea isolate N-1 in cucumber plants assessed as percentage of infected leaf area at 25 ppm treated 3 times at 7-day interval by foliar spray test. Type of assay: functional.
Assay [21] deals with Podosphaera fuliginea. As to the kind of experiment: Antifungal activity against Podosphaera fuliginea isolate K-7 in cucumber plants assessed as percentage of infected leaf area at 25 ppm treated 3 times at 7-day interval by foliar spray test. The class given is functional.
In assay [22] the test system is Podosphaera fuliginea. The assay can be described thus: Antifungal activity against Podosphaera fuliginea isolate S-2 in cucumber plants assessed as percentage of infected leaf area at 25 ppm treated 3 times at 7-day interval by foliar spray test. The class given is functional.
Assay [23] concerns Podosphaera fuliginea. The assay can be described thus: Antifungal activity against Podosphaera fuliginea isolate N-2 in cucumber plants assessed as percentage of infected leaf area at 25 ppm treated 3 times at 7-day interval by foliar spray test. Type of assay: functional.

Structures are written as SMILES.

Regarding `Cc1ccc2nc3sc(=O)sc3nc2c1` [CHINOMETHIONAT], the EC50 in the assay with Podosphaera fuliginea [1] was determined as 1.27 ppm; with Podosphaera fuliginea [2], 4.83 ppm; in the assay with Podosphaera fuliginea [4], 3.35 ppm; in the assay on Podosphaera fuliginea [10] it was 4.95 ppm. Further, the figures for the “Ratio EC50” value with Podosphaera fuliginea [3], in the assay with Podosphaera fuliginea [6] and in the assay on Podosphaera fuliginea [9] were 2.6, 3.9 and 3.8, respectively. The Activity in the assay on Podosphaera fuliginea [5] is on record as 96.5%; with Podosphaera fuliginea [7] it was 91.3%; with Podosphaera fuliginea [8] it was 94.9%; with Podosphaera fuliginea [11], 91.1%.
Take `CCCCc1c(C)nc(N(C)C)nc1O` [DIMETHIRIMOL]: the EC50 with Podosphaera fuliginea [1] turned out to be 2.95 ×10⁻² ppm; in the assay with Podosphaera fuliginea [2], 6.6 ppm; in the assay with Podosphaera fuliginea [4], 6.45 ppm; in the assay on Podosphaera fuliginea [10] it was 4.64 ppm. The “Ratio EC50” value is reported as 218.6 in the assay on Podosphaera fuliginea [3], 157.3 in the assay on Podosphaera fuliginea [6] and 223.7 with Podosphaera fuliginea [9]. The Activity in the assay with Podosphaera fuliginea [12] is reported as 49.4%; with Podosphaera fuliginea [13], 55.2%; in the assay with Podosphaera fuliginea [14] it was 98.8%; in the assay on Podosphaera fuliginea [15], 47.4%.
Turning to `COC(=O)NC(=S)Nc1ccccc1NC(=S)NC(=O)OC` [THIOPHANATE METHYL], the EC50 in the assay on Podosphaera fuliginea [1] is given as 2.71 ×10⁻² ppm; in the assay on Podosphaera fuliginea [2], 680 ppm; in the assay on Podosphaera fuliginea [4] it was 719 ppm; with Podosphaera fuliginea [10], 479 ppm. Besides, the “Ratio EC50” value in the assay with Podosphaera fuliginea [3] is given as 26531.4; in the assay on Podosphaera fuliginea [6], 17675.3; in the assay with Podosphaera fuliginea [9] it was 25092.3. Further, the Activity in the assay with Podosphaera fuliginea [16] was 5.1%; with Podosphaera fuliginea [17], 11.9%; in the assay on Podosphaera fuliginea [18], 0%; in the assay on Podosphaera fuliginea [19], 97.8%.
With `CC(C)(C)C(=O)C(Oc1ccc(Cl)cc1)n1cncn1` (centres undefined) [TRIADIMEFON], the EC50 in the assay on Podosphaera fuliginea [1] is 1.03 ×10⁻² ppm; in the assay with Podosphaera fuliginea [2], 9.72 ×10⁻¹ ppm; with Podosphaera fuliginea [4], 5.7 ppm; in the assay with Podosphaera fuliginea [10] it was 1.82 ×10⁻² ppm. In addition, the Activity with Podosphaera fuliginea [20] worked out at 76%; in the assay with Podosphaera fuliginea [21] it was 98.8%; with Podosphaera fuliginea [22], 100%; in the assay on Podosphaera fuliginea [23], 45.8%. The “Ratio EC50” value is reported as 553.4 in the assay on Podosphaera fuliginea [3], 1.8 with Podosphaera fuliginea [6] and 94.4 in the assay on Podosphaera fuliginea [9].

These data come from ChEMBL document CHEMBL3046745, “Sensitivity of Cucumber Powdery Mildew Fungus (Sphaerotheca fuliginea) to Several Fungicides” (J Pestic Sci, 1991).
